Here are results for 15 molecules from patent US9738655B2, “Tetrahydroisoquinolines containing substituted azoles as factor XIa inhibitors” (BRISTOL-MYERS SQUIBB COMPANY, priority 2013, dated 2017).

As a reminder, the Ki is a dissociation constant, usually derived from enzyme kinetics or from competition with a known ligand.

Assay [1] concerns the target purified human plasma kallikrein (Homo sapiens (Human), UniProt P03952). In words: Plasma kallikrein enzyme inhibition assay (chromogenic substrate S-2302). The class given is biochemical.
The target in assay [2] is purified human Factor XIa (Homo sapiens (Human), UniProt P03951). The experiment in a line: Factor XIa enzyme inhibition assay (chromogenic substrate S-2366). Conditions: read-out: Factor XIa Ki, measured at 25° C.
[3] abbreviates: measured at 25° C. (no asterisk), TFA salt.
Where [4] appears, read: measured at 25° C. (no asterisk).

Structures are written as SMILES. Structures can show the parent of a compound that is named as a salt. Where two headings read alike, the source gives them in different places.

Chain of purified human plasma kallikrein (P03952 391-638): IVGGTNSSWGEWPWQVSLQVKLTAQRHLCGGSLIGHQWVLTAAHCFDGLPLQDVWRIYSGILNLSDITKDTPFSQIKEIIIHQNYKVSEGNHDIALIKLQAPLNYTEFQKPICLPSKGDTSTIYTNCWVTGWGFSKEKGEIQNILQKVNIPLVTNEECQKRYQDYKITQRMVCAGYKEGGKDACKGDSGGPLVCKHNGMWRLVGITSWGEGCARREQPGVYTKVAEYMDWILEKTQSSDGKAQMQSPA
Chain of purified human plasma kallikrein (P03952 20-390 partner): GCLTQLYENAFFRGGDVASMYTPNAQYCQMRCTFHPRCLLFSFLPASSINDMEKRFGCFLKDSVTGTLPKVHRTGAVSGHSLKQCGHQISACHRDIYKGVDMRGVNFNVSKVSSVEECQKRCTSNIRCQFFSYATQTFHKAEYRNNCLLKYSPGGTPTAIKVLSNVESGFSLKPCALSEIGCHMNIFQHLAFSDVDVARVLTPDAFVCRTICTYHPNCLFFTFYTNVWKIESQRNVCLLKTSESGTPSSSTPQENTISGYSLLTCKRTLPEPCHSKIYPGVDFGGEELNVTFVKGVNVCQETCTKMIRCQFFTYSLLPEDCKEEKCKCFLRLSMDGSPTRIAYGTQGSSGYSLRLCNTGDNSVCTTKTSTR
Chain of purified human Factor XIa (P03951 388-625): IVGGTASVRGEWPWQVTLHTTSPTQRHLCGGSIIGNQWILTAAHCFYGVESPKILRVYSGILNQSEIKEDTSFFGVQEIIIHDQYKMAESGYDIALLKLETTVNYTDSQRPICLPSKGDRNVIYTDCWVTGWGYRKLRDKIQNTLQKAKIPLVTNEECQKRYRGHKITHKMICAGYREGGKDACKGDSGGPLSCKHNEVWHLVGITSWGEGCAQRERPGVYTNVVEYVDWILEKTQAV
Chain of purified human Factor XIa (P03951 19-387 partner): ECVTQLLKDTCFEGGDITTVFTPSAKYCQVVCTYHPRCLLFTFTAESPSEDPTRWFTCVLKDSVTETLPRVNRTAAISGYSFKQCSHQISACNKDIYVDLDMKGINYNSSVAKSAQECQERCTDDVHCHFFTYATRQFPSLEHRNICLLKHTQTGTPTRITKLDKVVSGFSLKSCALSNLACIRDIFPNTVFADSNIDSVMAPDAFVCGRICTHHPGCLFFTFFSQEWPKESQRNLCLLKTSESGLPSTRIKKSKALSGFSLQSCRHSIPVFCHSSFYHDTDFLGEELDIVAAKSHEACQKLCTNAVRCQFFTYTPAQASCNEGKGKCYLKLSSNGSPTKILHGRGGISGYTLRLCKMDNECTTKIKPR

Take `COC1CCN(c2cccc3c2CCN(C(=O)C2CC(c4c(F)ccc(Cl)c4F)=NO2)C3C(=O)Nc2ccc(C(=O)O)cc2)CC1` (stereo not drawn) [Example 256, 4-(2-(3-(3-chloro-2,6-difluorophenyl)-4,5-dihydroisoxazole-5-carbonyl)-5-(4-methoxypiperidin-1-yl)-1,2,3,4-tetrahydroisoquinoline-1-carboxamido)benzoic acid, TFA salt]: the Ki worked out at 198 nM in assay [1] (setting [3]) and 12.5 nM in assay [2] (TFA salt).
The corresponding values for `COC1CCN(c2cccc3c2CCN(C(=O)C2CC(c4c(F)ccc(Cl)c4F)=NO2)C3C(=O)Nc2ccc(C(=O)O)cc2)CC1` (stereo not drawn) [Example 257, 4-(2-(3-(3-chloro-2,6-difluorophenyl)-4,5-dihydroisoxazole-5-carbonyl)-5-(4-methoxypiperidin-1-yl)-1,2,3,4-tetrahydroisoquinoline-1-carboxamido)benzoic acid, TFA salt] are 24 nM and below 5 nM.
On the same counts, the results for `COC1CCN(c2cccc3c2CCN(C(=O)C2CC(=O)N(c4cccc(Cl)c4F)C2)C3C(=O)Nc2ccc(C(=O)O)cc2)CC1` (stereo not drawn) [Example 260, 4-(2-(1-(3-chloro-2-fluorophenyl)-5-oxopyrrolidine-3-carbonyl)-5-(4-methoxypiperidin-1-yl)-1,2,3,4-tetrahydroisoquinoline-1-carboxamido)benzoic acid, TFA salt] are 4750 nM and 2460 nM.
On the same counts, the results for `CC(C)(O)C1CCN(c2cccc3c2CCN(C(=O)C2CC(c4cccc(Cl)c4F)=NO2)C3C(=O)Nc2ccc(C(=O)O)cc2)CC1` (stereo not drawn) [Example 262, 4-(2-(3-(3-chloro-2-fluorophenyl)-4,5-dihydroisoxazole-5-carbonyl)-5-(4-(2-hydroxypropan-2-yl)piperidin-1-yl)-1,2,3,4-tetrahydroisoquinoline-1-carboxamido)benzoic acid, TFA salt] are 4.36 nM and below 5 nM.
As to `CC(C)(O)C1CCN(c2cccc3c2CCN(C(=O)C2CC(c4cccc(Cl)c4F)=NO2)C3C(=O)Nc2ccc(C(=O)O)cc2)CC1` (stereo not drawn) [Example 263, 4-(2-(3-(3-chloro-2-fluorophenyl)-4,5-dihydroisoxazole-5-carbonyl)-5-(4-(2-hydroxypropan-2-yl)piperidin-1-yl)-1,2,3,4-tetrahydroisoquinoline-1-carboxamido)benzoic acid, TFA salt], the Ki worked out at 68.1 nM in assay [1] (setting [3]) and 11.5 nM in assay [2] (TFA salt).
As to `COC1CCN(c2cccc3c2CCN(C(=O)C2(C)CC(c4cccc(Cl)c4F)=NO2)C3C(=O)Nc2ccc(C(=O)O)cc2)CC1` (stereo not drawn) [Example 266, 4-(2-(3-(3-chloro-2-fluorophenyl)-5-methyl-4,5-dihydroisoxazole-5-carbonyl)-5-(4-methoxypiperidin-1-yl)-1,2,3,4-tetrahydroisoquinoline-1-carboxamido)benzoic acid, TFA salt], the inhibitory constant (Ki) in assay [1] (setting [3]) stood at 687 nM; in assay [2] (TFA salt), 420 nM.
The corresponding values for `COC1CCN(c2cccc3c2CCN(C(=O)C2(C)CC(c4cccc(Cl)c4F)=NO2)C3C(=O)Nc2ccc(C(=O)O)cc2)CC1` (stereo not drawn) [Example 267, 4-(2-(3-(3-chloro-2-fluorophenyl)-5-methyl-4,5-dihydroisoxazole-5-carbonyl)-5-(4-methoxypiperidin-1-yl)-1,2,3,4-tetrahydroisoquinoline-1-carboxamido)benzoic acid, TFA salt] are 354 nM and 103 nM.
In the case of `COC1CCN(c2cccc3c2CCN(C(=O)c2cn(-c4cccc(Cl)c4F)cn2)[C@H]3C(=O)Nc2ccc(C(=O)O)cc2)CC1` [Example 272, (R)-4-(2-(1-(3-chloro-2-fluorophenyl)-1H-imidazole-4-carbonyl)-5-(4-methoxypiperidin-1-yl)-1,2,3,4-tetrahydroisoquinoline-1-carboxamido)benzoic acid, TFA salt], the values for the Ki in assay [1] (measured at 37° C. (*)) and in assay [2] were above 6000 nM and 976 nM, respectively.
In the case of `COC1CCN(c2cccc3c2CCN(C(=O)c2cn(-c4cccc(Cl)c4F)cn2)[C@@H]3C(=O)Nc2ccc(C(=O)O)cc2)CC1` [Example 273, (S)-4-(2-(1-(3-chloro-2-fluorophenyl)-1H-imidazole-4-carbonyl)-5-(4-methoxypiperidin-1-yl)-1,2,3,4-tetrahydroisoquinoline-1-carboxamide)benzoic acid, TFA salt], the results for the Ki in assay [1] (setting [4]) and in assay [2] were 7.65 nM and below 5 nM, respectively.
On the same counts, the results for `COC1CCN(c2cccc3c2CCN(C(=O)c2cnn(-c4cccc(Cl)c4F)c2N)[C@@H]3C(=O)Nc2ccc(C(=O)O)cc2)CC1` [Example 285, (S)-4-(2-(5-amino-1-(3-chloro-2-fluorophenyl)-1H-pyrazole-4-carbonyl)-5-(4-methoxypiperidin-1-yl)-1,2,3,4-tetrahydroisoquinoline-1-carboxamido)benzoic acid, TFA salt] are 19.8 nM and below 5 nM.
On the same counts, the results for `COC1CCN(c2cccc3c2CCN(C(=O)c2cnn(-c4cccc(Cl)c4F)c2N)[C@H]3C(=O)Nc2ccc(C(=O)O)cc2)CC1` [Example 286, (R)-4-(2-(5-amino-1-(3-chloro-2-fluorophenyl)-1H-pyrazole-4-carbonyl)-5-(4-methoxypiperidin-1-yl)-1,2,3,4-tetrahydroisoquinoline-1-carboxamido)benzoic acid, TFA salt] are 3290 nM and 266 nM.
On the same counts, the results for `CN1CCN(c2cccc3c2CCN(C(=O)c2cn(-c4cccc(Cl)c4F)nn2)[C@@H]3C(=O)Nc2ccc(C(=O)O)cc2)CC1=O` [Example 287, (S)-4-(2-(1-(3-chloro-2-fluorophenyl)-1H-1,2,3-triazole-4-carbonyl)-5-(4-methyl-3-oxopiperizin-1-yl)-1,2,3,4-tetrahydroisoquinoline-1-carboxamido)benzoic acid, TFA salt] are 1.82 nM and below 5 nM.
On to `CN1CCN(c2cccc3c2CCN(C(=O)c2cn(-c4cccc(Cl)c4F)nn2)[C@H]3C(=O)Nc2ccc(C(=O)O)cc2)CC1=O` [Example 288, (R)-4-(2-(1-(3-chloro-2-fluorophenyl)-1H-1,2,3-triazole-4-carbonyl)-5-(4-methyl-3-oxopiperazin-1-yl)-1,2,3,4-tetrahydroisoquinoline-1-carboxamido)benzoic acid, TFA salt], for which the figures for the Ki in assay [1] (setting [4]) and in assay [2] were 824 nM and 155 nM, respectively.
With `COC1CCN(c2cccc3c2CCN(C(=O)C2CC(c4c(C(F)(F)F)ccc(Cl)c4F)=NO2)C3C(=O)Nc2ccc(C(=O)O)cc2)CC1` (stereo not drawn) [Example 297, 4-(2-(3-(3-chloro-2-fluoro-6-(trifluoromethyl)phenyl)-4,5-dihydroisoxazole-5-carbonyl)-5-(4-methoxypiperidin-1-yl)-1,2,3,4-tetrahydroisoquinoline-1-carboxamido)benzoic acid, TFA salt], the Ki was found to be 1280 nM in assay [1] (setting [3]) and 46.3 nM in assay [2] (TFA salt).
In the case of `COC1CCN(c2cccc3c2CCN(C(=O)C2CC(c4c(C(F)(F)F)ccc(Cl)c4F)=NO2)C3C(=O)Nc2ccc(C(=O)O)cc2)CC1` (stereo not drawn) [Example 298, 4-(2-(3-(3-chloro-2-fluoro-6-(trifluoromethyl)phenyl)-4,5-dihydroisoxazole-5-carbonyl)-5-(4-methoxypiperidin-1-yl)-1,2,3,4-tetrahydroisoquinoline-1-carboxamido)benzoic acid, TFA salt], the Ki in assay [1] (setting [3]) amounted to 1010 nM; in assay [2] (TFA salt), 64.8 nM.
